Test system: C4-2B cells
Assay: C4-2B cell proliferation, ASO in combination with MDV3100 (Example 19)
Assay type: cell-based, human
Protocol: C4-2B cells were plated at 1,500 cells per well. […] ISIS 347526 was included as a negative control. […] After a treatment period of 6 days, the proliferative capacity of the cancer cells was measured with CellTiter 96® AQueous One Solution Cell Proliferation kit (Promega), following the manufacturer's instructions. Results are presented in Table 46 as percent inhibition of proliferation, relative to non-treated cells. Treatment of the cells with ISIS 549372 or ISIS 549458 reduced proliferation of the cells more extensively than treatment with ISIS 554221.

GTTGATTTAATGGTTG (all phosphorothioate, sugars by position not given here; further chemistry not fully specified) [ISIS 549458]
Percent inhibition of C4-2B cell proliferation with 0.1 μM ASO (0.1 μM ASO + MDV3100 1 μM, 6 days): 75%
Percent inhibition of C4-2B cell proliferation with 0.1 μM ASO (0.1 μM ASO + MDV3100 […], 6 days): 59%
Percent inhibition of C4-2B cell proliferation with 0.1 μM ASO (0.1 μM ASO, MDV3100 0 μM, 6 days): 39%
Percent inhibition of C4-2B cell proliferation with 0.2 μM ASO (0.2 μM ASO + MDV3100 1 μM, 6 days): 79%
Percent inhibition of C4-2B cell proliferation with 0.2 μM ASO (0.2 μM ASO + MDV3100 […], 6 days): 75%
Percent inhibition of C4-2B cell proliferation with 0.2 μM ASO (0.2 μM ASO, MDV3100 0 μM, 6 days): 74%
synergy with MDV3100 (C4-2B cells): synergistic with MDV3100
cell proliferation inhibited, combination (C4-2B cells, 0.1 μM ASO in combination with […] MDV3100): 75%
inhibited cell proliferation, ASO alone (C4-2B cells, ASO alone at 0.1 μM): 39%
reduced cell proliferation, ASO alone (C4-2B cells, ASO alone, 6 days, Table 46 (0.1 μM ASO)): 74%
prostate cancer cell proliferation, ASO in combination with MDV3100 (C4-2B cells, versus equal molar ISIS 554221 + MDV3100): inhibited prostate cancer cell proliferation to a greater extent than an equal molar concentration of ISIS 554221 in combination of MDV3100

Source: patent publication USRE48461E1, “Modulation of androgen receptor expression” (Ionis Pharmaceuticals, Inc., priority 2012, dated 2021)
